According to patent US7696246B2 (Ligand Pharmaceuticals Incorporated, priority 1999, dated 2010):
Read-outs that look alike come from different tables or passages of the source.

How the values were obtained:
PR [1] = molecular target: T1, PR (Homo sapiens, UniProt P06401); assay: PR competitive binding assay; conditions: Cheng-Prusoff
T1 sequence (P06401 1-933): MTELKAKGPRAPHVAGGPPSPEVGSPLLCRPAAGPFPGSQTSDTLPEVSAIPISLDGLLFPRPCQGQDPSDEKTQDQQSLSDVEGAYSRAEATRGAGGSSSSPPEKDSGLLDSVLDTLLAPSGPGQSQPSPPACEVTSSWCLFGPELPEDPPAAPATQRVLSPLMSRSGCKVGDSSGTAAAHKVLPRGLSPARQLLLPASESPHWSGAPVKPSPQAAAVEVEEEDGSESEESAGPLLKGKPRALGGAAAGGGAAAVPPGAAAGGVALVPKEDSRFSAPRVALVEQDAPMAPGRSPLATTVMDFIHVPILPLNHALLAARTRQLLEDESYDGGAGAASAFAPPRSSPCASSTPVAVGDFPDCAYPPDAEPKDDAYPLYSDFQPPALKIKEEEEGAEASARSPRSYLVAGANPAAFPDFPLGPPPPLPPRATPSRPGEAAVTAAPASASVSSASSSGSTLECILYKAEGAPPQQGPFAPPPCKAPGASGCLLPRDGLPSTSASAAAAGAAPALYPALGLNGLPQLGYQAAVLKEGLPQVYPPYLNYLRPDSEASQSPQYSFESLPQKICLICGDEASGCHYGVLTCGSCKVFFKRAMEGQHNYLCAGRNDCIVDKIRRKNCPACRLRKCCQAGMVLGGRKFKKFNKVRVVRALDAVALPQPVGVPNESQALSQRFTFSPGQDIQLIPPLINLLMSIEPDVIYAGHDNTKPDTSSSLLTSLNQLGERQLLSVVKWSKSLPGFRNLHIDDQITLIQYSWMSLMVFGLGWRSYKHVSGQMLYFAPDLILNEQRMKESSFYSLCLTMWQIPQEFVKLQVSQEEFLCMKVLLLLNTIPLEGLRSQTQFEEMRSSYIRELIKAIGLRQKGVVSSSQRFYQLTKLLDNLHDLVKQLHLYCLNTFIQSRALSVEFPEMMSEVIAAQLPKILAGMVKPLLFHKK
Description: (§1) After correcting for non-specific binding, IC50 values were determined. […] The IC50 value was determined graphically from a log-logit plot of the data. The Ki values were determined by application of the Cheng-Prusoff equivuation to the IC50 values, the labeled ligand concentration and the Kd of the labeled ligand.

PR [2] = molecular target: T1, PR; assay: Co-transfection assay, PR antagonist activity (CV-1 cells, in presence of progesterone); type: cell-based; set-up: expressed in transfected cells; host or cells: CV-1 cells; conditions: for PR Antagonist CV-1 Cells Efficacy (%): percent maximal inhibition, progesterone at its EC50
PR [3] = molecular target: T1, PR; assay: Co-transfection assay, PR agonist activity (CV-1 cells); type: cell-based; set-up: expressed in transfected cells; host or cells: CV-1 cells; conditions: for EC50: agonist potency EC50; for PR Agonist CV-1 Cells Efficacy (%): percent maximal response relative to reference agonist progesterone
human AR [4] = molecular target: T2, human AR (Homo sapiens, UniProt P10275); assay: Co-transfection assay, AR agonist activity (CV-1 cells, MTV-LUC reporter); type: cell-based; conditions: CV-1 cells; for EC50: agonist potency EC50; for AR Agonist CV-1 Cells Efficacy (%): percent maximal response relative to reference agonist DHT
T2 sequence (P10275 1-920): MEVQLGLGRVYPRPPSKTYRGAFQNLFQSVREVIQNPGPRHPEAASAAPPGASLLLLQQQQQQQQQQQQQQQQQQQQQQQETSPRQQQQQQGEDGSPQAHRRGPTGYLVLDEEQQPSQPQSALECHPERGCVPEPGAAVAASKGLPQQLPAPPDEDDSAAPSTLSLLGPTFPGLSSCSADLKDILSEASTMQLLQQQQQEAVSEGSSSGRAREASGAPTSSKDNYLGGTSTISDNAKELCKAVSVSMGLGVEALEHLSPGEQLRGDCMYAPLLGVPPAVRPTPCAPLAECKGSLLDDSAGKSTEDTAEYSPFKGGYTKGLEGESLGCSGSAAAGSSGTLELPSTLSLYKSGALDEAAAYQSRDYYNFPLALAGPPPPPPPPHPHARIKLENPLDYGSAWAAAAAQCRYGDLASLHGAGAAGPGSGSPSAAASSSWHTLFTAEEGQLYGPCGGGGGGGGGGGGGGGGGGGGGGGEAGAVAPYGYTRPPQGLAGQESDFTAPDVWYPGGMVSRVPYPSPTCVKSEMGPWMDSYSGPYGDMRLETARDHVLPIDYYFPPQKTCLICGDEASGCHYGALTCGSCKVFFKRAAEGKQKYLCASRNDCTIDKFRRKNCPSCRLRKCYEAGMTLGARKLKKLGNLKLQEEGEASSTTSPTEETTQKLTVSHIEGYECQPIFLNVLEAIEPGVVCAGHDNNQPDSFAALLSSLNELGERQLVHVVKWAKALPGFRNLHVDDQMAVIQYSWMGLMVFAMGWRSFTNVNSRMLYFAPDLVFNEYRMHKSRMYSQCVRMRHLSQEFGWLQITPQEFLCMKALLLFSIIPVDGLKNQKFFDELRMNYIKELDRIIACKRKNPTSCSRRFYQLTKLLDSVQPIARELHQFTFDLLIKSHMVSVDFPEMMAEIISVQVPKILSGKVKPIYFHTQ

human AR [5] = molecular target: T2, human AR; assay: Co-transfection assay, AR antagonist activity (CV-1 cells, in presence of DHT); type: cell-based; conditions: for AR Antagonist CV-1 Cells Efficacy (%): percent maximal inhibition, DHT at its EC50; for IC50: read-out: AR Antagonist CV-1 Cells Potency
human AR [6] = molecular target: T2, human AR; assay: AR whole cell competitive binding assay (COS-1 cells, 3H-DHT); conditions: 1 nM 3H-DHT, Cheng-Prusoff
Description: AR Binding: For the whole cell binding assay, COS-1 cells in 96-well microtiter plates containing DMEM-10% FBS were transfected as described above with the following plasmid DNA: pRShAR (2 ng/well), pRS-β-Gal (50 ng/well) and pGEM (48 ngcwell). Six hours after transfection, media was removed, the cells were washed with PBS and fresh media was added. The next day, the media was changed to DMEM-serum free to remove any endogenous ligand that might be complexed with the receptor in the cells.
Three replicates were used for each sample. […] The remaining media was removed, the cells were washed three times with PBS to remove unbound ligand, and cells were lysed with a Triton X-100-based buffer.
For the saturation analyses, the difference between the total binding and the nonspecific binding, normalized by the β-Gal rate, was defined as specific binding. […] The Ki values were determined by application of the Cheng-Prusoff equation to the IC50 values, where:
as §1

[7] = read-out: PR Antagonist CV-1 Cells Potency

Compound	Ki (PR [1])	IC50 (PR [2])	PR Antagonist CV-1 Cells Efficacy (%) (PR [2])	EC50 (PR [3])	PR Agonist CV-1 Cells Efficacy (%) (PR [3])	EC50 (human AR [4])	AR Antagonist CV-1 Cells Efficacy (%) (human AR [5])	IC50 (human AR [5])	Ki (human AR [6])	IC50 (PR [2]; [7])	AR Agonist CV-1 Cells Efficacy (%) (human AR [4])
CCCC(C)N(CCC)c1ccc2[nH]c(=O)cc(C(F)(F)F)c2c1 (racemic) [Compound 251, (±)-6-(N-Propyl-N-1-methylbutyl)amino-4-trifluoromethyl-2(1H)-quinolinone]	930 nM	747 nM	91%	> 10000 nM	na (na = not active (i.e. efficacy of <20 and potency of >10,000))	–	–	–	–	–	–
O=c1cc(C(F)(F)F)c2cc(-c3cccc(F)c3F)ccc2[nH]1 [Compound 725, 6-(2,3-Difluoro)phenyl-4-trifluoromethyl-2(1H)-quinolinone]	400 nM	149 nM	92%	> 10000 nM	na (na = not active (i.e. efficacy of <20 and potency of >10,000))	> 10000 nM	87%	79 nM	> 1000 nM	–	–
CC(=O)[C@H]1CC[C@H]2[C@@H]3CCC4=CC(=O)CC[C@]4(C)[C@H]3CC[C@]12C [Prog, progesterone, reference compound]	–	–	na (na = not active (i.e. efficacy of <20 and potency of >10,000))	–	100%	–	–	–	–	–	–
CN(C)c1ccc([C@H]2C[C@]3(C)[C@@H](CC[C@]3(O)CCCO)[C@@H]3CCC4=CC(=O)CCC4=C32)cc1 [ZK299, reference compound]	–	–	95%	–	na (na = not active (i.e. efficacy of <20 and potency of >10,000))	–	–	–	–	–	–
N#Cc1cc(F)cc(-c2ccc3[nH]c(=O)cc(C(F)(F)F)c3c2)c1 [Compound 731, 4-Trifluoromethyl-6-(3-fluoro-5-cyano)phenyl-2(1H)-quinolinone]	154 nM	64 nM	89%	> 10000 nM	na (na = not active (i.e. efficacy of <20 and potency of >10,000))	–	–	–	–	–	–
FC(F)(F)c1cc(=S)[nH]c2ccc(C3CCCCC3)cc12 [Compound 631, 6-Cyclohexyl-4-trifluoromethyl-2(1H)-thioquinolinone]	136 nM	796 nM	75%	> 10000 nM	na (na = not active (i.e. efficacy of <20 and potency of >10,000))	–	–	–	–	–	–
O=c1cc(C(F)(F)F)c2cc(-c3cccc([N+](=O)[O-])c3)ccc2[nH]1 [Compound 727, 4-Trifluoromethyl-6-(3-nitro)phenyl-2(1H)-quinolinone]	161 nM	108 nM	90%	> 10000 nM	na (na = not active (i.e. efficacy of <20 and potency of >10,000))	–	–	–	–	–	–
CC(C)CN(CC(F)(F)F)c1cc2c(C(F)(F)F)cc(=O)[nH]c2cc1O [Compound 473, 6-(N-Isobutyl-N-2,2,2-trifluoroethyl)amino-7-hydroxy-4-trifluoromethyl-2(1H)-quinolinone]	508 nM	880 nM	55%	> 10000 nM	na (na = not active (i.e. efficacy of <20 and potency of >10,000))	–	–	–	–	–	–
CC1(C)OC(=O)Nc2ccc(C3=CCCCC3)cc21 [Compound 667, 6-(1-Cyclohexenyl)-1,4-dihydro-4,4-dimethyl-1,3-benzo[d]oxazin-2-one]	144 nM	–	89%	> 10000 nM	na (na = not active (i.e. efficacy of <20 and potency of >10,000))	> 10000 nM	89%	27 nM	7.4 nM	70 nM	–
CC1(C)OC(=S)Nc2ccc(C3=CC(=O)CCC3)cc21 [Compound 695, 6-(3-Oxo-1-)cyclohexenyl-1,4-dihydro-4,4-dimethyl-1,3-benzo[d]oxazin-2-thione]	203 nM	–	90%	> 10000 nM	na (na = not active (i.e. efficacy of <20 and potency of >10,000))	–	–	–	–	20 nM	–
CC(=O)c1cccc(-c2ccc3[nH]c(=O)cc(C(F)(F)F)c3c2)c1 [Compound 735, 4-Trifluoromethyl-6-(3-acetylphenyl)-2(1H)-quinolinone]	915 nM	326 nM	84%	> 10000 nM	na (na = not active (i.e. efficacy of <20 and potency of >10,000))	–	–	–	–	–	–
CC1(C)OC(=S)Nc2ccc(C3=CC(O)CCC3)cc21 (racemic) [Compound 697, (±)-6-(3-Hydroxy-1-)cyclohexenyl-1,4-dihydro-4,4-dimethyl-1,3-benzo[d]oxazin-2-thione]	> 1000 nM	–	58%	> 10000 nM	na (na = not active (i.e. efficacy of <20 and potency of >10,000))	–	–	–	–	316 nM	–
O=c1cc(C(F)(F)F)c2cc(N3CCCCC3CO)ccc2[nH]1 (racemic) [Compound 331, (±)-6-(2-Hydroxymethyl-1-piperidino)-4-trifluoromethyl-2(1H)-quinolinone]	–	–	–	–	–	21 nM	42%	5.7 nM	> 1000 nM	–	44%
CCCOc1c(NCC(F)(F)F)ccc2[nH]c(=O)cc(C(F)(F)F)c12 [Compound 602, 6-(N-2,2,2-Trifluoroethyl)amino-5-propyloxy-4-trifluoromethyl-2(1H)-quinolinone]	–	–	–	–	–	> 10000 nM	85%	27 nM	45 nM	–	–
O=c1cc(C(F)(F)F)c2cc(C3=CCCCCC3)ccc2[nH]1 [Compound 633, 6-Cycloheptenyl-4-trifluoromethyl-2(1H)-quinolinone]	–	–	–	–	–	38 nM	51%	7.5 nM	97 nM	–	33%
CC1(C)OC(=O)Nc2ccc(C3CCCCCC3)cc21 [Compound 671, 6-(1-Cycloheptyl)-1,4-dihydro-4,4-dimethyl-1,3-benzo[d]oxazin-2-one]	> 1000 nM	–	62%	> 10000 nM	na (na = not active (i.e. efficacy of <20 and potency of >10,000))	–	–	–	–	200 nM	–
CC1COC(C(F)(F)F)N1c1ccc2[nH]c(=O)cc(C(F)(F)F)c2c1 (racemic) [Compound 352, (±)-6-(2-Trifluoromethyl-5-trans-methyl-1-oxazolidino)-4-trifluoromethyl-2(1H)-quinolinone]	–	–	–	–	–	12 nM	na (na = not active (i.e. efficacy of <20 and potency of >10,000))	> 10000 nM	25 nM	–	113%
